Measurements: US8940325B2, “Use of synthetic polysulphated oligosaccharides as cleaning agents for a wound” (Laboratories Urgo, priority 2010, dated 2015)

Target: T1, fibrin matrix (Homo sapiens, UniProt P02671+P02675+P02679)
T1 construct: 15 mg of human plasma fibrinogen (Sigma-Aldrich Catalog); purchased Sigma-Aldrich; host or cells: human plasma
T1 sequence (P02671 20-644 isoform P02671-2 limits assumed): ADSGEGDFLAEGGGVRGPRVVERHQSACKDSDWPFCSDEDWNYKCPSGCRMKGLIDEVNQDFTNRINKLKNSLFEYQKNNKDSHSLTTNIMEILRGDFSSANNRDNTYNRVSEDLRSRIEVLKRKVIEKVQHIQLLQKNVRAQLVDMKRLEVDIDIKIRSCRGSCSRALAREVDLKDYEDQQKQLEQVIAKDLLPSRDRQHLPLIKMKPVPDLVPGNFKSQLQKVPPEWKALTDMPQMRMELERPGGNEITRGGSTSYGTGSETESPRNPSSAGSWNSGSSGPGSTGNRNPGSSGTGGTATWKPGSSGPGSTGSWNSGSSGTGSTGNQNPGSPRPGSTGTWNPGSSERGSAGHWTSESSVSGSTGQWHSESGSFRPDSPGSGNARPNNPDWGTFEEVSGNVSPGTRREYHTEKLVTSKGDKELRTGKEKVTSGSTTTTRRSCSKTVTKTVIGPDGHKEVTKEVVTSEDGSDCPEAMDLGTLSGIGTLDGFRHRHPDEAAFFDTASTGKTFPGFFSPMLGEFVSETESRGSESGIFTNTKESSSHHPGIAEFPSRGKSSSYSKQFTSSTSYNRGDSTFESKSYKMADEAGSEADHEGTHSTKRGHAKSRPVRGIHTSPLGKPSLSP
T1 sequence (P02675 45-491 limits assumed): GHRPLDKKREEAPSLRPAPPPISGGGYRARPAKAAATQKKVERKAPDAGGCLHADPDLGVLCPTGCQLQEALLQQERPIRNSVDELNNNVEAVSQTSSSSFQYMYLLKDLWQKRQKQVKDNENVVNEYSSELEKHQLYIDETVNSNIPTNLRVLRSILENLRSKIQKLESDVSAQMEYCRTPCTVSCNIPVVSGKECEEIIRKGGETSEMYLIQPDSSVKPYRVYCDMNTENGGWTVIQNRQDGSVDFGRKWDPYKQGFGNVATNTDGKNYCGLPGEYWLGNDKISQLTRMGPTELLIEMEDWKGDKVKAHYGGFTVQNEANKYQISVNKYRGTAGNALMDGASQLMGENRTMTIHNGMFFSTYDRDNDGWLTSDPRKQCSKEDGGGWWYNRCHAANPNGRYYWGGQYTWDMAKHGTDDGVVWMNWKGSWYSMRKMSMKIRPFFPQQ
T1 sequence (P02679 27-437 isoform P02679-2 limits assumed): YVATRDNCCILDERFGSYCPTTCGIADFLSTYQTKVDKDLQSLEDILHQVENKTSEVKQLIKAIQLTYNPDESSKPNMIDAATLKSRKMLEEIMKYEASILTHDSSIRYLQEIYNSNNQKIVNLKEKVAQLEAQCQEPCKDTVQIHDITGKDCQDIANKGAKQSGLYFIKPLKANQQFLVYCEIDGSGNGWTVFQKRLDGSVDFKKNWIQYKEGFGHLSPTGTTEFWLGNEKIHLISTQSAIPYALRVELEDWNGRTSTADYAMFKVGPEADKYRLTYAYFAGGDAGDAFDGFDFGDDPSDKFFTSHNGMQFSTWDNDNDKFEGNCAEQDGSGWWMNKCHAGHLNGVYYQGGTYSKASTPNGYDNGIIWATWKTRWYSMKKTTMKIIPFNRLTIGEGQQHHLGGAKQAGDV
Test: Degradation of fibrin matrix prepared in vitro (visual observation and PDF determination)
Type: biochemical
Details: solution at 10 g/l, 48 hours
Procedure: The fibrin matrices were prepared according to Brown's protocol described in the work “Fibroblast migration in fibrin gel matrices” Am J. Pathol, 1993, 142: 273-283.
The following were dissolved at 37° C.: • 5 ml of an aqueous solution comprising 50 millimoles of Hepes (Sigma-Aldrich Catalog) • 15 mg of human plasma fibrinogen (Sigma-Aldrich Catalog) • 5 millimoles of CaCl2.
50 μl of thrombin, 100 NIH of human plasma (Sigma-Aldrich Catalog) were added to the solution thus prepared.
The reaction mixture was mixed, put in a 15-ml tube (or a Petri dish of 60 mm diameter) and then left to incubate at 37° C.
During the first 24 hours of incubation at 37° C., a fibrin matrix which has roughly the appearance of a gel was seen to appear.
In parallel, a control solution was prepared free from the test compound with phosphate-buffered saline (PBS).
The degradation of the fibrin matrix was monitored visually over the next 24 and 48 hours. […]
In order to quantify and verify that the observations made do indeed correspond to degradation of the fibrin matrix, the products of degradation of fibrin (PDFs) were determined 24 hours or 48 hours after adding the solutions of the test compound. […]
This solution was tested according to the protocol described above and the PDFs were measured 48 hours after adding the solution to the fibrin matrix. […]

SMILES: O=S(=O)([O-])OC[C@H]1O[C@@](COS(=O)(=O)[O-])(O[C@H]2O[C@H](COS(=O)(=O)[O-])[C@@H](OS(=O)(=O)[O-])[C@H](OS(=O)(=O)[O-])[C@H]2OS(=O)(=O)[O-])[C@@H](OS(=O)(=O)[O-])[C@@H]1OS(=O)(=O)[O-].[K+].[K+].[K+].[K+].[K+].[K+].[K+].[K+] [potassium salt of sucrose octasulfate]
- degradation of the fibrin matrix (level): partial degradation (if the value of the PDFs, expressed in μg/ml, is between 5 and 20, there is partial degradation of the fibrin matrix)
